Reference: patent US20230000829A1, “COMPOSITION FOR SLEEP IMPROVEMENT COMPRISING ERGOTHIONEINE OR SALT THEREOF” (priority 2019, published 2023)
“Also recorded” adds a separate entry of the source.

How the values were obtained:
[1] = L-ergothioneine concentration in plasma of human subjects; assay type: in vivo; details: 20 mg capsule daily for four weeks, week 4 vs pre-examination and control food group, FIG. 20
Method: (§1) In order to examine a sleep improving effect such as a sleep quality-improving effect of a supplement containing ergothioneine, male and female adults feeling stressed on a daily basis and dissatisfied with their sleep (test food group: 46 subjects; control food group: 46 subjects; 92 subjects in total) were subjected to a placebo-controlled, randomized, double-blind, parallel-group comparative study in which one capsule containing 20 mg of L-ergothioneine (test food) or one capsule not containing L-ergothioneine (control food) was ingested daily for four weeks. The sleep quality and sleep duration were evaluated by measuring brain waves during sleep using an electroencephalograph “SLEEPSCOPE” (product name) available from SleepWell Co., Ltd. A 2-sample t-test (**: p<0.01, *: p<0.05, t: p<0.1, vs. control food group) was performed for significance testing between the groups.
(§2) Brain waves during sleep were measured before the start of ingestion of the food for evaluation (pre-test) and after four weeks of ingestion of the food. The pre-test measurement of brain waves was regarded as “pre-examination”, and the measurement of brain waves after four weeks of ingestion of the food for evaluation was regarded as “week 4 examination”. The L-ergothioneine concentration (μM) in blood of each subject was also measured at the pre-examination and at the week 4 examination.

[2] = tested on: male and female adults feeling stressed on a daily basis and dissatisfied with their sleep; experiment: Sleep quality evaluation test for humans (electroencephalograph SLEEPSCOPE); assay type: in vivo, human; details: 20 mg capsule daily for four weeks
Method: as §1
Two types of food indistinguishable in terms of appearance, flavor, and the like were used for evaluation. • Test food: capsule containing a test substance (L-ergothioneine 20 mg) • Control food: capsule not containing a test substance
Each type of food for evaluation contained raw materials such as dextrin, hydroxypropyl cellulose, carrageenan, potassium chloride, and titanium oxide, in addition to the test substance. The control food was produced using the same raw materials used in the test food, except that the test substance (L-ergothioneine) was not added.
as §2
NREM sleep is divided into three stages 1 to 3 according to sleep depth by measuring brain waves using an electroencephalograph “SLEEPSCOPE” available from SleepWell Co., Ltd.
Ratio (%) of each sleep stage (NREM sleep stage 1, 2, or 3) to total sleep time; number of wake after sleep onset (frequency); number of wake after sleep onset in two hours before waking up (frequency), NREM sleep latency (min); 5 power in the first sleep cycle (delta power during NREM sleep in the first sleep cycle) (μV^2); and sleep efficiency (%).
FIGS. 4 to 19 show results of main evaluation items for sleep quality (ratio of total time of each sleep stage to total sleep time; number of wake after sleep onset; number of wake after sleep onset in two hours before waking up; NREM sleep latency; 5 (delta) power in the first sleep cycle, and sleep efficiency) and sleep duration, as determined by measuring brain waves. FIGS. 4 to 19 show the measured values and the amount of change between measurements at the pre-examination and at the week 4 examination (**: p<0.01, *: p<0.05, †: p<0.1, vs. control food group). The amount of change is a value obtained by subtracting the measured value at the pre-examination from the measured value at the week 4 examination (“measured value at week 4 examination”−“measured value at pre-examination”). The results shown in FIG. 4 to FIG. 20 are presented in means±standard error for each group. A 2-sample t-test (**: p<0.01, *: p<0.05, †: p<0.1, vs. control food group) was performed for significance testing between the groups. In FIG. 4, FIG. 5, FIG. 6, FIG. 8, FIG. 10, FIG. 12, FIG. 14, FIG. 16, FIG. 18, and FIG. 20, “Pre.” refers to the pre-examination, and “Post.” refers to the week 4 examination. The solid lines represent the test food group, and the dashed lines represent the control food group. In FIG. 7, FIG. 9, FIG. 11, FIG. 13, FIG. 15, FIG. 17, and FIG. 19, the black bars represent the test food group, and the white bars represent the control food group.

Sprague-Dawley (SD) rat = experiment: Stress sleep disorder model, brain waves during sleep; assay type: in vivo; details: stress-induced rats, oral about 20 mg per 1 kg body weight per day
Method: The following method was used to induce stress in rats in an ergothioneine administration group (N=5) and a non-administration group (N=7). During the test period, the rats were kept under a 12-hour light-dark cycle. A Sprague-Dawley (SD) rat (8 weeks of age) was introduced into a cage where a larger and highly aggressive Brown-Norway (BN) rat was kept. These two rats were housed together for 10 minutes to make sure contact (direct contact) between the rats as the BN rat chasing after or hovering over the SD rat. Then, the SD rat and the BN rat were kept together for 24 hours in a breeding cage having compartments separated by a transparent perforated partition (indirect contact). Stress was induced in the SD rat in the same manner on the following day. A BM rat different from the one on the preceding day was used as a stressor. Stress was induced once a day for five consecutive days (from Monday to Friday), and then only indirect contact was allowed for two days on the weekend. This process was repeated for two cycles. Thus, stress induction under conditions combining direct contact and indirect contact was performed 10 times in total, and stress was induced for 12 days in total. The ergothioneine administration group was orally administered with L-ergothioneine from seven days before stress induction to the end of stress induction. L-ergothioneine was used in the form of an aqueous solution of L-ergothioneine dissolved in water (L-ergothioneine concentration: 0.25 mg/mL). The dosage of L-ergothioneine was about 20 mg per 1 kg body weight per day. The non-administration group was orally administered with water instead of the aqueous L-ergothioneine solution. The control (stress (−)) group (N=4) was orally administered with water without the stress induction. Electrodes were implanted in the rats to record brain waves, and brain waves during sleep and wakefulness were recorded for 24 hours after the end of stress induction. NREM sleep, REM sleep, and awake state were determined from the brain waves using biological signal analysis software Spike2 (available from CED), and the duration of episode of each of these states was calculated. Tukey's multiple comparisons test (*: p<0.05, **: p<0.005, ****: p<0.0001) was performed for significance testing.

[3] = light phase, vs non-administration group, FIG. 1

C[N+](C)(C)[C@@H](Cc1c[nH]c(=S)[nH]1)C(=O)[O-] [L-ergothioneine]
L-ergothioneine concentration in plasma [1]: increased the L-ergothioneine concentration in plasma | number and duration of wake after sleep onset [2]: reduced the number and duration of wake after sleep onset | ratio of NREM sleep duration (total of stages 1 to 3) to total sleep time ([2]; vs control food group): increased the ratio of NREM sleep duration to total sleep time | sleep latency ([2]; vs control food group): showed a reduced sleep latency, compared to the control food group | ratio of NREM sleep stage 1 (N1) to total sleep time ([2]; vs control food group, FIG. 4, 7): significantly suppressed | number of wake after sleep onset ([2]; vs control food group, FIG. 8, 9): significantly suppressed sleep fragmentation | number of wake after sleep onset in two hours before waking up ([2]; vs control food group, FIG. 10, 11): significantly suppressed sleep fragmentation | NREM sleep latency (time to reach deep sleep) ([2]; vs control food group, FIG. 12, 13): reduced an increase in time to reach deep sleep | 5 power in the first sleep cycle ([2]; vs control food group, FIG. 14, 15): increased 5 power in the first sleep cycle | sleep efficiency ([2]; vs control food group, FIG. 16, 17): increased sleep efficiency | sleep duration ([2]; vs control food group, FIG. 18, 19): increased sleep duration | fragmentation in REM sleep (number of sleep fragmentation episodes) (Sprague-Dawley (SD) rat; light phase, FIG. 2): reduced fragmentation to a level comparable to that of the control group | duration of episode of NREM sleep (NREM) (Sprague-Dawley (SD) rat; [3]): improved these phenomena to the level of the control group without stress induction | duration of episode of REM sleep (REM) (Sprague-Dawley (SD) rat; [3]): improved these phenomena to the level of the control group without stress induction | ratio of NREM sleep duration to total sleep time (Sprague-Dawley (SD) rat): increased the ratio of NREM sleep duration to total sleep time | sleep latency (latency from the start of the light phase to the first episode of NREM sleep) (Sprague-Dawley (SD) rat; FIG. 3): to a level comparable to that of control group without stress induction; also recorded: exhibited an action to reduce an increase in sleep latency
